This passage reports Ki results from ChEMBL document CHEMBL5442175, “EUbOPEN Chemogenomics Library - PDSP Secondary Binding” (2024).

pKi: −log10 of the molar value. Bounds are passed on as bounds.

Broadly, the pKi is the Ki on a negative log10 scale, so that one unit is a factor of ten. Higher therefore signals a small Ki.

Assay [1] addresses Beta-1 adrenergic receptor (Homo sapiens, UniProt P08588). Briefly: PDSP Secondary Binding target: ADRB1 - Compounds are tested at 10 uM concentration, plate are incubated at room temperature in the dark for 90 minutes. Reaction are stopped by vacuum filtration onto 0.3% polyethyleneimine soaked filter mats using Filtermate harvester. Scintillation cocktail is then melted onto microwave-dried filters on a hot plate and the radio activity is counted in Microbia counter.

For assay [2], the target named is Beta-3 adrenergic receptor (Homo sapiens, UniProt P13945). Kind of assay: PDSP Secondary Binding target: ADRB3 - Compounds are tested at 10 uM concentration, plate are incubated at room temperature in the dark for 90 minutes. Reaction are stopped by vacuum filtration onto 0.3% polyethyleneimine soaked filter mats using Filtermate harvester. Scintillation cocktail is then melted onto microwave-dried filters on a hot plate and the radio activity is counted in Microbia counter.

In assay [3] the target is T1, Alpha-1D adrenergic receptor (Homo sapiens, UniProt P25100).
T1 sequence (P25100 whole entry): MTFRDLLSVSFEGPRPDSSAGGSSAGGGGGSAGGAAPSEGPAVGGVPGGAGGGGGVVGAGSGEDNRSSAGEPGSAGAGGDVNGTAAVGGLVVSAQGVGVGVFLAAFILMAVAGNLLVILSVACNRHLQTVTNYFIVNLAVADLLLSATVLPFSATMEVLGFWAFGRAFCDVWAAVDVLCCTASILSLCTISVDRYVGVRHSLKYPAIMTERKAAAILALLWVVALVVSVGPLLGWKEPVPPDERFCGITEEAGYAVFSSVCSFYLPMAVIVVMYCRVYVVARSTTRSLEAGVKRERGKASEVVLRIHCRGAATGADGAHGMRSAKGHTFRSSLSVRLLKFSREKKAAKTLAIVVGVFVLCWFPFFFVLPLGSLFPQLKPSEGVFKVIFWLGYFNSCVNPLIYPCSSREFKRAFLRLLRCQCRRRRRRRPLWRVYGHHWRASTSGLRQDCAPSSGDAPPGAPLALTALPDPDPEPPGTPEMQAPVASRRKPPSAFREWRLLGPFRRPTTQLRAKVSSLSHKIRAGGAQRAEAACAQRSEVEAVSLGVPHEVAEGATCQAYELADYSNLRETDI
Kind of assay: PDSP Secondary Binding target: ADRA1D - Compounds are tested at 10 uM concentration, plate are incubated at room temperature in the dark for 90 minutes. Reaction are stopped by vacuum filtration onto 0.3% polyethyleneimine soaked filter mats using Filtermate harvester. Scintillation cocktail is then melted onto microwave-dried filters on a hot plate and the radio activity is counted in Microbia counter.

Assay [4] has as its target Delta-type opioid receptor (Homo sapiens, UniProt P41143). Kind of assay: PDSP Secondary Binding target: OPRD1 - Compounds are tested at 10 uM concentration, plate are incubated at room temperature in the dark for 90 minutes. Reaction are stopped by vacuum filtration onto 0.3% polyethyleneimine soaked filter mats using Filtermate harvester. Scintillation cocktail is then melted onto microwave-dried filters on a hot plate and the radio activity is counted in Microbia counter.

The target in assay [5] is 5-hydroxytryptamine receptor 2B (Homo sapiens, UniProt P41595). Kind of assay: PDSP Secondary Binding target: HTR2B - Compounds are tested at 10 uM concentration, plate are incubated at room temperature in the dark for 90 minutes. Reaction are stopped by vacuum filtration onto 0.3% polyethyleneimine soaked filter mats using Filtermate harvester. Scintillation cocktail is then melted onto microwave-dried filters on a hot plate and the radio activity is counted in Microbia counter.

The target of assay [6] is T2, 5-hydroxytryptamine receptor 3A (Homo sapiens, UniProt P46098).
T2 sequence (P46098 whole entry): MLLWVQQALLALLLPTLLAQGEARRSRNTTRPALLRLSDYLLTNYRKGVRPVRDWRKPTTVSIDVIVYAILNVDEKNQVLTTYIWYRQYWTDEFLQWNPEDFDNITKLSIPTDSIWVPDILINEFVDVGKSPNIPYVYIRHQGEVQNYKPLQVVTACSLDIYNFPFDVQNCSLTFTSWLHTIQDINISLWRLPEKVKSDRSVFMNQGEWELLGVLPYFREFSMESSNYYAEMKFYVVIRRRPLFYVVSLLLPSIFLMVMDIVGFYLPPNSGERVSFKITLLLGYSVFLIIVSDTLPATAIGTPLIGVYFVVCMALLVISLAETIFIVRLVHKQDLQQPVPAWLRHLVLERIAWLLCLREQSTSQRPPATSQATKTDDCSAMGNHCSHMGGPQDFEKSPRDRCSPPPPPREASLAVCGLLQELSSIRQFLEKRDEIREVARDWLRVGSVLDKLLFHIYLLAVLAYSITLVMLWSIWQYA
Briefly: PDSP Secondary Binding target: HTR3A - Compounds are tested at 10 uM concentration, plate are incubated at room temperature in the dark for 90 minutes. Reaction are stopped by vacuum filtration onto 0.3% polyethyleneimine soaked filter mats using Filtermate harvester. Scintillation cocktail is then melted onto microwave-dried filters on a hot plate and the radio activity is counted in Microbia counter.

Another assay deals with Histamine H4 receptor (Homo sapiens, UniProt Q9H3N8). Briefly: PDSP Secondary Binding target: HRH4 - Compounds are tested at 10 uM concentration, plate are incubated at room temperature in the dark for 90 minutes. Reaction are stopped by vacuum filtration onto 0.3% polyethyleneimine soaked filter mats using Filtermate harvester. Scintillation cocktail is then melted onto microwave-dried filters on a hot plate and the radio activity is counted in Microbia counter.

The target in assay [7] is Sigma non-opioid intracellular receptor 1 (Homo sapiens, UniProt Q99720). Briefly: PDSP Secondary Binding target: SIGMAR1 - Compounds are tested at 10 uM concentration, plate are incubated at room temperature in the dark for 90 minutes. Reaction are stopped by vacuum filtration onto 0.3% polyethyleneimine soaked filter mats using Filtermate harvester. Scintillation cocktail is then melted onto microwave-dried filters on a hot plate and the radio activity is counted in Microbia counter.

Assay [8] concerns the target 5-hydroxytryptamine receptor 2A (Homo sapiens, UniProt P28223). Briefly: PDSP Secondary Binding target: HTR2A - Compounds are tested at 10 uM concentration, plate are incubated at room temperature in the dark for 90 minutes. Reaction are stopped by vacuum filtration onto 0.3% polyethyleneimine soaked filter mats using Filtermate harvester. Scintillation cocktail is then melted onto microwave-dried filters on a hot plate and the radio activity is counted in Microbia counter.

The target in the next assay is Histamine H1 receptor (Homo sapiens, UniProt P35367). Briefly: PDSP Secondary Binding target: HRH1 - Compounds are tested at 10 uM concentration, plate are incubated at room temperature in the dark for 90 minutes. Reaction are stopped by vacuum filtration onto 0.3% polyethyleneimine soaked filter mats using Filtermate harvester. Scintillation cocktail is then melted onto microwave-dried filters on a hot plate and the radio activity is counted in Microbia counter.
Chain of Histamine H1 receptor (P35367 whole entry): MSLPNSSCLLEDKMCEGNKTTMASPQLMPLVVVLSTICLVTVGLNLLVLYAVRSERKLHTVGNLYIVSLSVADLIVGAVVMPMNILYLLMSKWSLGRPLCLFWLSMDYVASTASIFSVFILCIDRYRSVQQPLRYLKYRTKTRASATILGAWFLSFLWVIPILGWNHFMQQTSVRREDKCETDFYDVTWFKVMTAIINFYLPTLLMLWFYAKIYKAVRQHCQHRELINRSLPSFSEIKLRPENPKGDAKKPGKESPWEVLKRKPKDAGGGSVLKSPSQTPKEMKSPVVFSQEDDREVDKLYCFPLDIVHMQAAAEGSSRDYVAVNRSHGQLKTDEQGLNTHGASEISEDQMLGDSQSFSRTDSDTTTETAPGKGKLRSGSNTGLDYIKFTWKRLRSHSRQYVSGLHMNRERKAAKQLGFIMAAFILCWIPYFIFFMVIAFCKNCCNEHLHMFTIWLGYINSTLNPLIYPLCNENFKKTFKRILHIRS

Chain of Beta-3 adrenergic receptor (P13945 whole entry): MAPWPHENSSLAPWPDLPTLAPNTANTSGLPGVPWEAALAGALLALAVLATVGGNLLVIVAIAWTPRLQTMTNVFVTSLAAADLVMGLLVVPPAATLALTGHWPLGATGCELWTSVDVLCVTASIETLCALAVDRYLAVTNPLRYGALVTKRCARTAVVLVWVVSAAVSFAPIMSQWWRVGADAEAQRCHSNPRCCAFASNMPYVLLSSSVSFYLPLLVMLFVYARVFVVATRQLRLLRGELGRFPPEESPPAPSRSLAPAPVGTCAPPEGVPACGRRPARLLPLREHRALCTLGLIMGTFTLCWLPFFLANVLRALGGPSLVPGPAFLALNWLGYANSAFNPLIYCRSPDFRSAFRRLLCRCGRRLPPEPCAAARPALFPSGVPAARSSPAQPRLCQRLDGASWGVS
Chain of 5-hydroxytryptamine receptor 2A (P28223 whole entry): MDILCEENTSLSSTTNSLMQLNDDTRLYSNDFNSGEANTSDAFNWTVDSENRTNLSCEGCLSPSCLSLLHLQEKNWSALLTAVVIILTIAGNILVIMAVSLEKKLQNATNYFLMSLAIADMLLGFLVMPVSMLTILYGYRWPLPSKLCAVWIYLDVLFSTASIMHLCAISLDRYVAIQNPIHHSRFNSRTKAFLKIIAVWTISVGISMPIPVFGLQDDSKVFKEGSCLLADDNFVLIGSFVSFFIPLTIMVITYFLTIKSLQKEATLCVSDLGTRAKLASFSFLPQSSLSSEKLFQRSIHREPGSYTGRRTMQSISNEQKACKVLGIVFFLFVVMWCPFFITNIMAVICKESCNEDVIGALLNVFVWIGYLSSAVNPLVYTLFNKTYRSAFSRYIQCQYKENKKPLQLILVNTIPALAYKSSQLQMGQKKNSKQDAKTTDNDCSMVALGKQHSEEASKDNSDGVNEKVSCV
Chain of 5-hydroxytryptamine receptor 2B (P41595 whole entry): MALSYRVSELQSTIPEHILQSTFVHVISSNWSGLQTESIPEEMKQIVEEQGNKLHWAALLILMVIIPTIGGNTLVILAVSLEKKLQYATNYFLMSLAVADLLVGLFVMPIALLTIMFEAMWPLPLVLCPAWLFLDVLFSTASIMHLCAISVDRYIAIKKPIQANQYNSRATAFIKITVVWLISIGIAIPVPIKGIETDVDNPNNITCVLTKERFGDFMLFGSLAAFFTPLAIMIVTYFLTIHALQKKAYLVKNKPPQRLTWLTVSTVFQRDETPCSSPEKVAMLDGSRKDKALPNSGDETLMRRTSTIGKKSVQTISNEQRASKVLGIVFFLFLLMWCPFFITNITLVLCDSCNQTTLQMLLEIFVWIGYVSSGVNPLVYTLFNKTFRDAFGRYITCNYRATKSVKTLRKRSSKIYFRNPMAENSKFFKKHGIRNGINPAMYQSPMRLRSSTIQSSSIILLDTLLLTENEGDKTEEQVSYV
Chain of Sigma non-opioid intracellular receptor 1 (Q99720 whole entry): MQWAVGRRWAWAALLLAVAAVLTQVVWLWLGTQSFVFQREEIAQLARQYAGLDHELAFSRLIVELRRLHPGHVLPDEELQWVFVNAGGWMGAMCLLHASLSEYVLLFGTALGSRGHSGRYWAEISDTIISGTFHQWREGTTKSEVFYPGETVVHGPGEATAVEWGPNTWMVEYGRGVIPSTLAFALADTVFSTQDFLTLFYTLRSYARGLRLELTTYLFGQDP
Chain of Delta-type opioid receptor (P41143 whole entry): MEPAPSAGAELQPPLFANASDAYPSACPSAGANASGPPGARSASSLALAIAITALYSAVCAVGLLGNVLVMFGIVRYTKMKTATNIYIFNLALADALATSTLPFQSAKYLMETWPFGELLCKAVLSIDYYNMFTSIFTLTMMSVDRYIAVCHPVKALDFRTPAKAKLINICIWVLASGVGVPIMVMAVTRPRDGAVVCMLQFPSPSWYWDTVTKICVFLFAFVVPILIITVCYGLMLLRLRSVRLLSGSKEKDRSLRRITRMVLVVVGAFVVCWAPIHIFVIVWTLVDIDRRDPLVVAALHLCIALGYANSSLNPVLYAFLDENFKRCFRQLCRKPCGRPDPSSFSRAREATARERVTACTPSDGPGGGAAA
Chain of Histamine H4 receptor (Q9H3N8 whole entry): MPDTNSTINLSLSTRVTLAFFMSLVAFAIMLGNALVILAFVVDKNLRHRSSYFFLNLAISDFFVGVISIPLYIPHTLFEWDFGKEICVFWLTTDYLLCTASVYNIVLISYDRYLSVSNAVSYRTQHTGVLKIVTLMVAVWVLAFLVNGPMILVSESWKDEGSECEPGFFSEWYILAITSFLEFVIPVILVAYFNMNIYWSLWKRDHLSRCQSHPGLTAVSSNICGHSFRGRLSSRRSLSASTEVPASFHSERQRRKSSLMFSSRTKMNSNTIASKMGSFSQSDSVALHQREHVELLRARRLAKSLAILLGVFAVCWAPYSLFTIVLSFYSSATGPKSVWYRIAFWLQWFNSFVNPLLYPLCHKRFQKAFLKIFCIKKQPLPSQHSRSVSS
Chain of Beta-1 adrenergic receptor (P08588 whole entry): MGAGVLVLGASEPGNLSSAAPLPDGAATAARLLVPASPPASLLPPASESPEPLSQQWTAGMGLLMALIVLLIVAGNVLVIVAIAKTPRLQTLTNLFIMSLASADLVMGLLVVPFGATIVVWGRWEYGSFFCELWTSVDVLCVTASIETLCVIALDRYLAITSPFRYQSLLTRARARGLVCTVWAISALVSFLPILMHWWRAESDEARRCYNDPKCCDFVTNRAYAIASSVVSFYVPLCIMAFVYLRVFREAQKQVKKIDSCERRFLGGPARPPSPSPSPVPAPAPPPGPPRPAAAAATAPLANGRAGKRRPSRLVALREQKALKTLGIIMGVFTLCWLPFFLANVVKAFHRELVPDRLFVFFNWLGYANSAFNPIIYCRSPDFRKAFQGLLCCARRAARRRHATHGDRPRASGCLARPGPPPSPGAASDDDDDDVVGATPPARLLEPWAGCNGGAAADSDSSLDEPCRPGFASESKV

`O=C(Nc1ccc(Cl)cc1)Nc1cccc(-c2cccc(N3CCCC3)n2)c1`: the pKi in [1] and in assay [2] was below 5.00 throughout.

With `Nc1nc2c(c(N3CCNCC3)n1)CCC1=C2[C@@H]2CCCC[C@@H]2O1`, the negative-log Ki (pKi) in assay [3] is 5.10; in assay [4] it was below 5.00; in [5], 6.55; in assay [6], 6.45; at Histamine H4 receptor, 7.74; in [7], 6.33. For the same compound, the results for the pKi (in assay [8]; at Histamine H1 receptor) were 5.19 and 5.89, respectively.
